From US7868177B2, “Multi-cyclic compounds and method of use” (Amgen Inc., priority 2006, dated 2011)

target: T1, AuroraA-TPX2 (Homo sapiens, UniProt O14965); test: AuroraA-TPX2 HTRF kinase assay (Aurora kinase A HTRF assay); format: biochemical
T1 construct: 20 μL of AuroraA-TPX2 KD GST for a final volume of 41 μL; GST
T1 sequence (O14965 133-383 limits assumed): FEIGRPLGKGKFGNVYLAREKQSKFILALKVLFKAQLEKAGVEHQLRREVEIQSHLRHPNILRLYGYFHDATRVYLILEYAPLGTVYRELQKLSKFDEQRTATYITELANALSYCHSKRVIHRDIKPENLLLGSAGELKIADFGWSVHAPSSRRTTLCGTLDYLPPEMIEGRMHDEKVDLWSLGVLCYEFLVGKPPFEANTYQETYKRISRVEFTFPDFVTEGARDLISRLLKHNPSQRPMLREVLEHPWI
T1 sequence (Q9ULW0 1-43 partner limits assumed): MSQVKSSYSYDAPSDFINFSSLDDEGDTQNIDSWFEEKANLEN
Method: AuroraA-TPX2-Homogeneous Time Resolved Fluorescent (HTRF) Kinase Assay:
The AuroraA HTRF assay begins with AuroraA in the presence of ATP phosphorylating the biotinylated peptide PLK. The reaction incubates for about 120 min. Detection reagents are added to quench the reaction. These agents stop the reaction by diluting out the enzyme and chelating the metals due to the presence of EDTA. After addition, the assay is incubated overnight to allow the detection reagents to equilibrate.
The AuroraA HTRF assay comprises 1 μL of compound in 100% DMSO, 20 μL of ATP and biotinylated PLK, and 20 μL of AuroraA-TPX2 KD GST for a final volume of 41 μL. The final concentration of PLK is about 1 μM. […] Buffer conditions are as follows: 60 mM HEPES pH 7.5, 25 mM NaCl, 10 mM MgCl, 2 mM DTT, 0.05% BSA.
The assay is quenched and stopped with 160 μL of detection reagent. Detection reagents are as follows: Buffer made of 50 mM Tris, pH 7.5, 100 mM NaCl, 3 mM EDTA, 0.05% BSA, 0.1% Tween20. Added to this buffer prior to reading is Steptavidin allophycocyanin (SA-APC) at a final conc in the assay of 0.0005 mg/mL, and europilated anti-phosphoPLK Ab (Eu-anti-PLK) at a final conc of 0.02 nM.
The assay plate is read in either a Discovery or a RubyStar. The eu-anti-PLK is excited at 320 nm and emits at 615 nm to excite the SA-APC which in turn emits at 655 nm. The ratio of SA-APC at 655 nm (excited due to close proximity to the Eu-anti-PLK because of phosphorylation of the peptide) to free Eu-anti-PLK at 615 nm will give substrate phosphorylation.

Row | IC50 | SMILES
1 | ≤ 5 µM | CN1CCCC1CCNc1nccc(-c2cccnc2Oc2ccc(Nc3nc4ccccc4[nH]3)c3ccccc23)n1 (stereo not drawn) [Example 46, N-(4-((3-(2-((2-(1-methyl-2-pyrrolidinyl)ethyl)amino)-4-pyrimidinyl)-2-pyridinyl)oxy)-1-naphthalenyl)-1H-benzimidazol-2-amine]
2 | ≤ 5 µM | Cc1ccc2nc(Nc3ccc(Oc4ncccc4-c4ccncn4)c(C)c3)oc2c1 [Example 48, 6-methyl-N-(3-methyl-4-((3-(4-pyrimidinyl)-2-pyridinyl)oxy)phenyl)-1,3-benzoxazol-2-amine]
3 | ≤ 5 µM | Cn1cc(-c2ccccc2)nc1Nc1ccc(Oc2ncccc2-c2ccnc(N)n2)cc1 [Example 115, 4-(2-((4-((1-methyl-4-phenyl-1H-imidazol-2-yl)amino)phenyl)oxy)-3-pyridinyl)-2-pyrimidinamine]
